# Counter-ions that a name gives are not always drawn.
# Biological target: His-tagged recombinant human TrkA (Homo sapiens (Human), UniProt P04629)
# Test: TrkA LanthaScreen Eu Kinase Binding Assay
# Details: averaged IC50; TR-FRET binding, 60 min, 22° C.; read-out: TrkA Enzyme IC50
# Method in brief: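 TR-FRET binding: 5 nM His-tagged human TrkA cytoplasmic domain with 4 nM Alexa-Fluor Tracer 236, 2 nM biotin anti-His and 2 nM Eu-streptavidin. Buffer was 25 mM MOPS pH 7.5, 5 mM MgCl2, 0.005% Triton X-100, 2% DMSO, 60 min at 22° C. IC50 from a four-parameter fit of ratiometric percent of control.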
# His-tagged recombinant human TrkA, sequence (P04629 440-796): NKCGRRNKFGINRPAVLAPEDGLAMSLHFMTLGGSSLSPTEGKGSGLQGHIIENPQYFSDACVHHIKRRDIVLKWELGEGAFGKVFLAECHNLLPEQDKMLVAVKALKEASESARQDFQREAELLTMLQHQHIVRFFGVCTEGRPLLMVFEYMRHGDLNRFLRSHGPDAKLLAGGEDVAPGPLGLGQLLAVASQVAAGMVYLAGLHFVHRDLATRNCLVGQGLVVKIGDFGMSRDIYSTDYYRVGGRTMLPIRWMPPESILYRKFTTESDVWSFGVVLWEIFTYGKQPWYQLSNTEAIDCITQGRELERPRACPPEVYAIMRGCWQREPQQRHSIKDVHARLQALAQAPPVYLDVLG
row,SMILES,IC50
1,"CO[C@H]1[C@@H](O)[C@H](NC(=O)Nc2c(C)c(-c3cnn(C)c3)nn2-c2ccccc2)c2ccccc2C1(C)C [Example 86, 1-(1′,4-dimethyl-1-phenyl-1H,1′H-[3,4′-bipyrazol]-5-yl)-3-((r-1,t-2,t-3)-2-hydroxy-3-methoxy-4,4-dimethyl-1,2,3,4-tetrahydronaphthalen-1-yl)urea]",< 0.1 µM
2,"CO[C@H]1[C@@H](O)[C@H](NC(=O)Nc2c(C)c(OCC3CCN(C)CC3)nn2-c2ccccc2)c2ccccc2C1(C)C [Example 87, 1-((r-1,t-2,t-3)-2-hydroxy-3-methoxy-4,4-dimethyl-1,2,3,4-tetrahydronaphthalen-1-yl)-3-(4-methyl-3-((1-methylpiperidin-4-yl)methoxy)-1-phenyl-1H-pyrazol-5-yl)urea]",< 0.1 µM
3,"CNC(=O)c1nn(-c2ccccc2)c(NC(=O)N[C@@H]2c3ccc(F)cc3C(C)(C)C[C@H]2O)c1C [Example 88, 5-(3-((1,2-trans)-6-fluoro-2-hydroxy-4,4-dimethyl-1,2,3,4-tetrahydronaphthalen-1-yl)ureido)-N,4-dimethyl-1-phenyl-1H-pyrazole-3-carboxamide]",< 0.1 µM
4,"Cc1c(-c2cnn(C)c2)nn(-c2ccccc2)c1NC(=O)N[C@@H]1c2ccc(F)cc2C(C)(C)C[C@H]1O [Example 89, 1-(1′,4-dimethyl-1-phenyl-1H,1′H-[3,4′-bipyrazol]-5-yl)-3-((1,2-trans)-6-fluoro-2-hydroxy-4,4-dimethyl-1,2,3,4-tetrahydronaphthalen-1-yl)urea]",< 0.1 µM
5,Cc1c(-c2ccc(=O)n(C)c2)nn(-c2ccccc2)c1NC(=O)N[C@@H]1c2ccc(F)cc2C(C)(C)C[C@H]1O [Example 90],< 0.1 µM
6,"CNC(=O)c1nn(-c2ccccc2)c(NC(=O)N[C@@H]2c3cc(F)ccc3C(C)(C)C[C@H]2O)c1C [Example 91, 5-(3-((1,2-trans)-7-fluoro-2-hydroxy-4,4-dimethyl-1,2,3,4-tetrahydronaphthalen-1-yl)ureido)-N,4-dimethyl-1-phenyl-1H-pyrazole-3-carboxamide]",< 0.1 µM
7,"Cc1c(-c2cnn(C)c2)nn(-c2ccccc2)c1NC(=O)N[C@@H]1c2cc(F)ccc2C(C)(C)C[C@H]1O [Example 92, 1-(1′,4-dimethyl-1-phenyl-1H,1′H-[3,4′-bipyrazol]-5-yl)-3-((1,2-trans)-7-fluoro-2-hydroxy-4,4-dimethyl-1,2,3,4-tetrahydronaphthalen-1-yl)urea]",< 0.1 µM
8,"Cc1c(-c2ccc(=O)n(C)c2)nn(-c2ccccc2)c1NC(=O)N[C@@H]1c2cc(F)ccc2C(C)(C)C[C@H]1O [Example 93, 1-((1,2-trans)-7-fluoro-2-hydroxy-4,4-dimethyl-1,2,3,4-tetrahydronaphthalen-1-yl)-3-(4-methyl-3-(1-methyl-6-oxo-1,6-dihydropyridin-3-yl)-1-phenyl-1H-pyrazol-5-yl)urea]",< 0.1 µM
9,"COCc1ccc2c(c1)C(NC(=O)Nc1c(C)c(=O)[nH]n1-c1ccccc1)CN(CC(F)(F)F)C2C (centres unmarked) [Example 96, 1-(6-(methoxymethyl)-1-methyl-2-(2,2,2-trifluoroethyl)-1,2,3,4-tetrahydroisoquinolin-4-yl)-3-(4-methyl-5-oxo-2-phenyl-2,5-dihydro-1H-pyrazol-3-yl)urea]",< 0.1 µM
10,Cc1nn(-c2ccccc2)c(NC(=O)N[C@@H]2c3cc(CO)ccc3C(C)(C)C[C@H]2O)c1C [Example 100],< 0.1 µM
11,"Cc1c(-c2cnn(C)c2)nn(-c2ccccc2)c1NC(=O)N[C@H]1CCCc2cc(F)ccc21 [Example 103, (S)-1-(1′,4-dimethyl-1-phenyl-1H,1′H-[3,4′-bipyrazol]-5-yl)-3-(6-fluoro-1,2,3,4-tetrahydronaphthalen-1-yl)urea]",< 0.1 µM
12,"COCc1ccc2c(c1)C(NC(=O)Nc1c(C)c(-c3cnn(C)c3)nn1-c1ccccc1)CN(CC(F)(F)F)C2C (centres unmarked) [Example 109, 1-(1′,4-dimethyl-1-phenyl-1H,1′H-[3,4′-bipyrazol]-5-yl)-3-(6-(methoxymethyl)-1-methyl-2-(2,2,2-trifluoroethyl)-1,2,3,4-tetrahydroisoquinolin-4-yl)urea]",< 0.1 µM
13,"COCc1ccc2c(c1)C(NC(=O)Nc1c(C)c(C(N)=O)nn1-c1ccccc1)CN(CC(F)(F)F)C2C (centres unmarked) [Example 110, 5-(3-(6-(methoxymethyl)-1-methyl-2-(2,2,2-trifluoroethyl)-1,2,3,4-tetrahydroisoquinolin-4-yl)ureido)-4-methyl-1-phenyl-1H-pyrazole-3-carboxamide]",< 0.1 µM
14,"COCc1ccc2c(c1)C(NC(=O)Nc1c(C)c(-c3cn(C)cn3)nn1-c1ccccc1)CN(CC(F)(F)F)C2C (centres unmarked) [Example 111, 1-(6-(methoxymethyl)-1-methyl-2-(2,2,2-trifluoroethyl)-1,2,3,4-tetrahydroisoquinolin-4-yl)-3-(4-methyl-3-(1-methyl-1H-imidazol-4-yl)-1-phenyl-1H-pyrazol-5-yl)urea]",< 0.1 µM
15,"Cc1c(-c2cnn(C)c2)nn(-c2ccccc2)c1NC(=O)NC1CCSc2ccc(Br)cc21 (centres unmarked) [Example 112, 1-(6-bromothiochroman-4-yl)-3-(1′,4-dimethyl-1-phenyl-1H,1′H-[3,4′-bipyrazol]-5-yl)urea]",< 0.1 µM
16,"Cc1c(-c2cnn(C)c2)nn(-c2ccccc2)c1NC(=O)NC1CCS(=O)(=O)c2ccc(Br)cc21 (centres unmarked) [Example 113, 1-(6-bromo-1,1-dioxidothiochroman-4-yl)-3-(1′,4-dimethyl-1-phenyl-1H,1′H-[3,4′-bipyrazol]-5-yl)urea]",0.1 to 1 µM
17,"Cc1c(-c2cnn(C)c2)nn(-c2ccccc2)c1NC(=O)NC1CSCc2ccc(Br)cc21 (centres unmarked) [Example 114, 1-(6-bromoisothiochroman-4-yl)-3-(1′,4-dimethyl-1-phenyl-1H,1′H-[3,4′-bipyrazol]-5-yl)urea]",< 0.1 µM
18,"Cc1c(-c2cnn(C)c2)nn(-c2ccccc2)c1NC(=O)NC1CS(=O)(=O)Cc2ccc(Br)cc21 (centres unmarked) [Example 115, 1-(6-bromo-2,2-dioxidoisothiochroman-4-yl)-3-(1′,4-dimethyl-1-phenyl-1H,1′H-[3,4′-bipyrazol]-5-yl)urea]",< 0.1 µM
19,"Cc1c(-c2cnn(C)c2)nn(-c2ccccc2)c1NC(=O)NC1CN(CC(F)(F)F)C(=O)c2ccccc21 (centres unmarked) [Example 116, 1-(1′,4-dimethyl-1-phenyl-1H,1′H-[3,4′-bipyrazol]-5-yl)-3-(1-oxo-2-(2,2,2-trifluoroethyl)-1,2,3,4-tetrahydroisoquinolin-4-yl)urea]",< 0.1 µM
20,"Cc1ncc(-c2nn(-c3ccccc3)c(NC(=O)N[C@@H]3c4ccccc4C(C)(C)C[C@H]3O)c2C)cn1 [Example 117, 1-((1,2-trans)-2-hydroxy-4,4-dimethyl-1,2,3,4-tetrahydronaphthalen-1-yl)-3-(4-methyl-3-(2-methylpyrimidin-5-yl)-1-phenyl-1H-pyrazol-5-yl)urea]",< 0.1 µM
21,"CNC(=O)c1nn(-c2ccccc2)c(NC(=O)NC2CN(CC(F)(F)F)C(C)c3ccc(COC)cc32)c1C (centres unmarked) [Example 129, 5-(3-(6-(methoxymethyl)-1-methyl-2-(2,2,2-trifluoroethyl)-1,2,3,4-tetrahydroisoquinolin-4-yl)ureido)-N,4-dimethyl-1-phenyl-1H-pyrazole-3-carboxamide]",< 0.1 µM
22,"Cc1ncc(-c2nn(-c3ccccc3)c(NC(=O)NC3CN(CC(F)(F)F)C(=O)c4ccccc43)c2C)cn1 (centres unmarked) [Example 130, 1-(4-methyl-3-(2-methylpyrimidin-5-yl)-1-phenyl-1H-pyrazol-5-yl)-3-(1-oxo-2-(2,2,2-trifluoroethyl)-1,2,3,4-tetrahydroisoquinolin-4-yl)urea]",< 0.1 µM
23,"Cc1nn(-c2ccccc2)c(NC(=O)NC2CN(CC(F)(F)F)C(=O)c3ccccc32)c1C (centres unmarked) [Example 131, 1-(3,4-dimethyl-1-phenyl-1H-pyrazol-5-yl)-3-(1-oxo-2-(2,2,2-trifluoroethyl)-1,2,3,4-tetrahydroisoquinolin-4-yl)urea]",< 0.1 µM
24,"Cc1c(OC2CN3CCC2CC3)nn(-c2ccccc2)c1NC(=O)N[C@@H]1c2ccccc2C(C)(C)C[C@H]1O (stereo partly drawn) [Example 132, 1-((1R,2R)-2-hydroxy-4,4-dimethyl-1,2,3,4-tetrahydronaphthalen-1-yl)-3-(4-methyl-1-phenyl-3-(quinuclidin-3-yloxy)-1H-pyrazol-5-yl)urea]",< 0.1 µM
25,"Cc1c(OCCN2CCOCC2)nn(-c2ccccc2)c1NC(=O)N[C@@H]1c2ccccc2C(C)(C)C[C@H]1O [Example 133, 1-((1R,2R)-2-hydroxy-4,4-dimethyl-1,2,3,4-tetrahydronaphthalen-1-yl)-3-(4-methyl-3-(2-morpholinoethoxy)-1-phenyl-1H-pyrazol-5-yl)urea]",< 0.1 µM
26,"Cc1c(OCCN(C)C)nn(-c2ccccc2)c1NC(=O)N[C@@H]1c2ccccc2C(C)(C)C[C@H]1O [Example 134, 1-(3-(2-(dimethylamino)ethoxy)-4-methyl-1-phenyl-1H-pyrazol-5-yl)-3-((1R,2R)-2-hydroxy-4,4-dimethyl-1,2,3,4-tetrahydronaphthalen-1-yl)urea]",< 0.1 µM
27,"COc1nn(-c2ccccc2)c(NC(=O)N[C@@H]2c3ccccc3CC[C@@H]2O)c1C [Example 135, 1-((1R,2S)-2-hydroxy-1,2,3,4-tetrahydronaphthalen-1-yl)-3-(3-methoxy-4-methyl-1-phenyl-1H-pyrazol-5-yl)urea]",1 to 3 µM
28,"Cc1c(-c2cnn(C)c2)nn(-c2ccccc2)c1NC(=O)NC1CN(CC(F)(F)F)C2(CC2)c2ccccc21 (centres unmarked) [Example 136, 1-(1′,4-dimethyl-1-phenyl-1H,1′H-[3,4′-bipyrazol]-5-yl)-3-(2′-(2,2,2-trifluoroethyl)-3′,4′-dihydro-2′H-spiro[cyclopropane-1,1′-isoquinolin]-4′-yl)urea trifluoroacetate]",< 0.1 µM
29,"Cc1c(-c2cnn(C)c2)nn(-c2ccccc2)c1NC(=O)N[C@@H]1c2ccccc2C2(CC2)[C@H]1O [Example 137, 1-(1′,4-dimethyl-1-phenyl-1H,1′H-[3,4′-bipyrazol]-5-yl)-3-((2′R,3′R)-2′-hydroxy-2′,3′-dihydrospiro[cyclopropane-1,1′-inden]-3′-yl)urea]",< 0.1 µM
